This is an account of results in patent publication US12180207B2 (ARRAY BIOPHARMA INC., priority 2018, dated 2024).

Assay [1] concerns the target HEK-293 cells transfected with dox-inducible human wild type FGFR3 (Homo sapiens (Human), UniProt P22607). In words: FGFR3 pERK cell assay. Type of assay: cell-based. The note with it: HEK-293 dox-inducible FGFR3, 1 hour compound, 100 ng/ml FGF-acidic; maximum concentration 5 μM. The method in brief:
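Doxycycline-induced cells preincubated 1 h at 37 °C with compound (1:3 dilutions, top 5 μM final), then stimulated 5 min with 100 ng/ml FGF-acidic. Lysate phospho-ERK1/2 measured by MSD sandwich assay; IC50 at 50 POC from 4-parameter fit, normalised to no-compound and control-compound wells.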

The target of assay [2] is recombinant human FGFR3 (amino acids R397-T806) (Homo sapiens (Human), UniProt P22607). In words: FGFR3 enzyme activity assay (LanthaScreen TR-FRET). Format: biochemical. Particulars: 25 μM ATP, 10 min incubation at 22° C., average of multiple determinations if made, read-out: FGFR3 Enz FRET IC50. The method in brief: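 GST-HIS6-tagged human FGFR3 (R397-T806) was reacted with 100 nM Alexa Fluor 647-Poly-GT substrate and 25 μM ATP plus compound in HEPES/MgCl2/Triton buffer, pH 7.5, 2% DMSO, for 10 min at 22 °C.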

Assay [3] deals with recombinant human FGFR1 catalytic domain (amino acids 308-731) (Homo sapiens (Human), UniProt P11362). In words: FGFR1 enzyme activity assay (LanthaScreen TR-FRET). Format: biochemical. The note with it: 20 min incubation at 22° C., average of multiple determinations if made, read-out: FGFR1 Enz FRET IC50. In a few lines:
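His-tagged FGFR1 kinase domain with 100 nM Alexa Fluor 647-poly-GT peptide and ATP in pH 7.5 HEPES/MgCl2 buffer with 2% DMSO, 20 min at 22 °C. Quenched with EDTA plus 2 nM Eu-PY20 antibody and read after 60 min. IC50 comes from a 4-parameter fit of percent of control.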
In general terms: Time-resolved FRET reads energy transfer from a long-lived donor to a nearby acceptor.

Sequence of recombinant human FGFR1 catalytic domain (amino acids 308-731) (P11362 other isoform, or with tags, fused parts or gaps): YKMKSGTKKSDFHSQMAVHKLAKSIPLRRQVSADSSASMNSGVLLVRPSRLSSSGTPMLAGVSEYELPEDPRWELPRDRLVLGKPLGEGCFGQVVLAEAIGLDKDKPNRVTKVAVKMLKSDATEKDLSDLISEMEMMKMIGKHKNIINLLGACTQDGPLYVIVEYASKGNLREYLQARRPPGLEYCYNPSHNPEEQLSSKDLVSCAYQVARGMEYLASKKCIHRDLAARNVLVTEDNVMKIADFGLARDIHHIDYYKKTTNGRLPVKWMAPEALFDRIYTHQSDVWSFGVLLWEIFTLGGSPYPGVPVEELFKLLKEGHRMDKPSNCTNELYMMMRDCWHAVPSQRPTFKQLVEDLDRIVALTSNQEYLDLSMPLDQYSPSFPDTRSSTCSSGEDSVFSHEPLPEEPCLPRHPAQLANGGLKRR
Sequence of HEK-293 cells transfected with dox-inducible human wild type FGFR3 (P22607 23-806): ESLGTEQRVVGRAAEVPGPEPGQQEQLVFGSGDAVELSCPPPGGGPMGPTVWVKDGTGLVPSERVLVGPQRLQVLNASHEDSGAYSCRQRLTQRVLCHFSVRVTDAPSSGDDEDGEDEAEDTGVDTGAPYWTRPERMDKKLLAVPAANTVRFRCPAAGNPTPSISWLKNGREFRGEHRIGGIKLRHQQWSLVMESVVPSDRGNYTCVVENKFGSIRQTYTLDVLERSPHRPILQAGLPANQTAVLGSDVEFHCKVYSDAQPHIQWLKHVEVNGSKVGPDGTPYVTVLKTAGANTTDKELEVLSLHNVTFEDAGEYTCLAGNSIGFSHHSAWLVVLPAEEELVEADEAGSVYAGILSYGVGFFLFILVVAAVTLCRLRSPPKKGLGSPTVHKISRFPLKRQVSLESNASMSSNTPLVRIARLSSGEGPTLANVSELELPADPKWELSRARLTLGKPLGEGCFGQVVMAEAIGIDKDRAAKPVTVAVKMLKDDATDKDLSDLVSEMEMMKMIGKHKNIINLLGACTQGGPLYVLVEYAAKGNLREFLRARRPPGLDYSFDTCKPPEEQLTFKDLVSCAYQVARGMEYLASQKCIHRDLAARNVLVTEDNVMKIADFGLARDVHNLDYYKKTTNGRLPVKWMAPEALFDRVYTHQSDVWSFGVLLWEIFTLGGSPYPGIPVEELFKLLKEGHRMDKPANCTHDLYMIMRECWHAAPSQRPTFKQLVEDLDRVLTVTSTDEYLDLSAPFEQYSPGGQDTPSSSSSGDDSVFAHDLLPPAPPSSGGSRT
Sequence of recombinant human FGFR3 (amino acids R397-T806) (P22607 397-806): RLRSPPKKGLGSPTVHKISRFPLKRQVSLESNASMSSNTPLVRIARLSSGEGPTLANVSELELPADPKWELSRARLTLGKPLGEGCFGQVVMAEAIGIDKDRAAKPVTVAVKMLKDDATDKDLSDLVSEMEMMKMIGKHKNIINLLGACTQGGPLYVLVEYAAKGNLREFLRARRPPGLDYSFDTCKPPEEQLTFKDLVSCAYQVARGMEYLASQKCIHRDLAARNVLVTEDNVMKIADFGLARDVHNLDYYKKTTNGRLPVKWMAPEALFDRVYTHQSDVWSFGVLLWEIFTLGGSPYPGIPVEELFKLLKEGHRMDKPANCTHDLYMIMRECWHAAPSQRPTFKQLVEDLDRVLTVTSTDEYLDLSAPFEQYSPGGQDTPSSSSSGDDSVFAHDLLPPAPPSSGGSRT

Usually IC50 stands for the concentration that inhibits the measured activity by half. For the compound `COc1cc(-c2ccc(N3CCN(C(=O)C4(F)CN(C(=O)/C=C/CN(C)C)C4)CC3)nc2C)cn2ncc(C#N)c12` [Example 168, (E)-6-(6-(4-(1-(4-(dimethylamino)but-2-enoyl)-3-fluoroazetidine-3-carbonyl)piperazin-1-yl)-2-methylpyridin-3-yl)-4-methoxypyrazolo [1,5-a]pyridine-3-carbonitrile], the IC50 was found to be 99 nM in assay [1], 72 nM in assay [2] and 148 nM in assay [3].

Turning to `COc1cc(-c2cnc(N3CCN(C(=O)C4(F)CN(C(=O)/C=C/CN(C)C)C4)CC3)cc2C)cn2ncc(C#N)c12` [Example 169, (E)-6-(6-(4-(1-(4-(dimethylamino)but-2-enoyl)-3-fluoroazetidine-3-carbonyl)piperazin-1-yl) -4-methylpyridin-3-yl)-4-methoxypyrazolo [1,5-a]pyridine-3-carbonitrile], the IC50 in assay [1] turned out to be 175 nM; in assay [2], 83 nM; in assay [3], 156 nM.

In the case of `COc1cc(-c2cnn(C3CCN(C(=O)C4(F)CN(C(=O)/C=C/CN(C)C)C4)CC3)c2C)cn2ncc(Cl)c12` [Example 170, (E)-1-(3-(4-(4-(3-chloro-4-methoxypyrazolo [1,5-a]pyridin-6-yl)-5-methyl-1H-pyrazol-1-yl)piperidine-1-carbonyl)-3-fluoroazetidin-1-yl)-4-(dimethylamino)but-2-en-1-one], the IC50 was 55 nM in assay [1], 17 nM in assay [2] and 903 nM in assay [3].

With `COc1cc(-c2cnn(C3CCN(C(=O)C4(OC)CN(C(=O)/C=C/CN(C)C)C4)CC3)c2C)cn2ncc(Cl)c12` [Example 171, (E)-1-(3-(4-(4-(3-chloro-4-methoxypyrazolo [1,5-a]pyridin-6-yl)-5-methyl-1H-pyrazol-1-yl)piperidine-1-carbonyl)-3-methoxyazetidin-1-yl)-4-(dimethylamino)but-2-en-1-one], the IC50 in assay [1] amounted to 50 nM; in assay [2], 24 nM; in assay [3] it was 111 nM.

`C=CC(=O)N1CC(O)(C(=O)N2CCC(n3ncc(-c4cc(OC)c5c(Cl)cnn5c4)c3C)CC2)C1` [Example 172, 1-(3-(4-(4-(3-chloro-4-methoxypyrazolo [1,5-a]pyridin-6-yl)-5-methyl-1H-pyrazol-1-yl)piperidine-1-carbonyl)-3-hydroxyazetidin-1-yl)prop-2-en-1-one]: the IC50 in assay [1] is 171 nM; in assay [2] it was 101 nM; in assay [3] it was 856 nM.

Turning to `COc1cc(-c2cnn(C3CCN(CC4(OC)CN(C(=O)/C=C/CN(C)C)C4)CC3)c2C)cn2ncc(Cl)c12` [Example 173, (E)-1-(3-((4-(4-(3-chloro-4-methoxypyrazolo [1,5-a]pyridin-6-yl)-5-methyl-1H-pyrazol-1-yl)piperidin-1-yl)methyl)-3-methoxyazetidin-1-yl)-4-(dimethylamino)but-2-en-1-one], the IC50 in assay [1] came out at 164 nM; in assay [2], 41 nM; in assay [3], 281 nM.

As to `COc1cc(-c2cnn(C3CCN(C(=O)C4CN(C(=O)C#CCO)C4)CC3)c2)cn2ncc(C#N)c12` [Example 179, 6-(1-(1-(1-(4-hydroxybut-2-ynoyl)azetidine-3-carbonyl)piperidin-4-yl)-1H-pyrazol-4-yl)-4-methoxypyrazolo[1,5-a]pyridine-3-carbonitrile], the IC50 in assay [1] was found to be 236 nM; in assay [2] it was 3 nM; in assay [3] it was 15 nM.

`COc1cc(-c2cnn(C3CCN(C(=O)C4CN(C(=O)/C=C/CBr)C4)CC3)c2)cn2ncc(C#N)c12` [Example 180, (E)-6-(1-(1-(1-(4-bromobut-2-enoyl)azetidine-3-carbonyl)piperidin-4-yl)-1H-pyrazol-4-yl)-4-methoxypyrazolo[1,5-a]pyridine-3-carbonitrile]: the IC50 came out at 45 nM in assay [1], 6 nM in assay [2] and 19 nM in assay [3].
